From PubChem BioAssay (NCI)
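All cell lines were grown in 96-well plates and treated with compound for 48 hours. GI50 = concentration required for 50% inhibition of growth. At the TGI there is no net growth.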

Legend:
Test in all cases: growth of human tumour cells (NCI), 48 h
[1] = test system: NCI-H23 lung
[2] = test system: SK-OV-3 ovarian
[3] = test system: HL-60(TB) leukemia
[4] = test system: OVCAR-4 ovarian
[5] = test system: TK-10 renal
[6] = test system: UACC-257 melanoma
[7] = test system: NCI-H460 lung
[8] = test system: UACC-62 melanoma
[9] = test system: UO-31 renal
[10] = test system: M14 melanoma

SMILES	GI50 [1] [µM]	TGI [1] [µM]	GI50 [2] [µM]	TGI [2] [µM]	GI50 [3] [µM]	TGI [3] [µM]	GI50 [4] [µM]	TGI [4] [µM]	GI50 [5] [µM]	TGI [5] [µM]	GI50 [6] [µM]	TGI [6] [µM]	GI50 [7] [µM]	TGI [7] [µM]	GI50 [8] [µM]	TGI [8] [µM]	GI50 [9] [µM]	TGI [9] [µM]	GI50 [10] [µM]	TGI [10] [µM]
COc1cnc2c(c1)C(=O)c1c-2n(CCCNC2=NCCS2)c(=O)c2cc(Cl)ccc12	0.3	2.11	0.316	1.64	0.656	3.39	1.42	2.95	1.66	3.09	1.53	3.11	0.0299	1.16	0.0953	1.94	0.163	1.74	0.0829	1.81
Cc1ccc(-c2nc3nc(-c4ccccc4)nc(N4CCNCC4)c3o2)cc1	1.8	3.53	1.9	3.42	0.215	0.463	0.435	1.6	0.747	1.71	1.98	3.8	0.226	0.503	1.74	3.27	0.513	1.01	1.77	3.25
O=C1C(SCCO)=C(SCCO)C(=O)N1c1ccc(-c2ccccc2)cc1	4.38	13.3	32.7	> 100	18.7	51.6	0.932	3.1	1.49	3.18	3.32	7.62	9.75	34.9	6.34	19	1.54	2.97	2.31	7.64
COC(=O)Nc1nc2ccc(Oc3cccc(NC(=O)Nc4cc(C(F)(F)F)ccc4F)c3)cc2[nH]1	11.3	> 25	10.2	> 25	4.98	18.5	17.6	> 25	> 25	> 25	> 23.7	> 25	11.4	> 25	8.11	> 25	14.3	> 25	7.67	> 25
CC1(C)CC2CC(CC(C)(C)C2=O)C1=O	–	> 100	–	> 100	–	> 100	–	> 100	–	> 100	–	> 100	–	> 100	–	> 100	–	> 100	–	> 100
C[C@]12CC[C@@H]3c4ccc(O)cc4CC[C@H]3[C@@H]1Cc1cnc(N)nc12	18.1	41	12.8	33.5	22.1	> 100	32.2	> 100	18.9	42.7	28.9	74.1	9.95	24.9	13.6	27.2	19	43.7	18.2	36.4
O=C1C(c2cnc3ccccc3n2)=C(O)c2ccccc21	–	> 100	–	> 46.4	–	> 88.5	–	> 100	–	> 100	–	> 95.9	–	> 100	–	> 100	–	> 100	–	> 100
O1[As]2O[As]3O[As]1O[As](O2)O3	0.733	4.98	2.8	7	0.344	1.73	1.06	11.9	2.31	9.5	1.5	3.24	2.03	–	0.574	2.18	1.22	2.84	1.46	4.21
CC[C@H](CO)Nc1nc(NCc2ccccc2)c2ncn(C(C)C)c2n1	–	41.9	–	> 100	–	> 79.9	26.8	> 88.5	44.9	> 100	–	98.7	–	> 100	10.5	34	16.7	96.9	31.6	> 100
Cc1ccc(C(=O)NC2CCC2)cc1-c1ccc(C(=O)NCC2CC2)cc1	> 25	> 25	> 25	> 25	> 25	> 25	> 25	> 25	> 25	> 25	> 25	> 25	> 25	> 25	> 25	> 25	> 25	> 25	> 25	> 25
Nc1c(C(=O)c2cccc(C#CCO)c2)cnn1-c1ccc(F)cc1	> 25	> 25	> 25	> 25	> 25	> 25	> 23.3	> 25	> 25	> 25	> 25	> 25	> 25	> 25	> 25	> 25	> 25	> 25	> 25	> 25
CCCN(CCC)C(=O)C(=O)c1c(N)[nH]n(-c2ccccc2)c1=O	–	> 100	–	> 100	–	> 100	–	> 100	–	> 100	–	> 100	–	> 100	–	> 100	–	> 100	–	> 100
COC(=N)c1c(N)[n+]([O-])c2ccc(F)cc2[n+]1[O-]	> 100	> 100	> 100	> 100	> 100	> 100	> 100	> 100	> 100	> 100	> 100	> 100	58.1	> 100	> 100	> 100	> 100	> 100	> 100	> 100
